Data set [1] is described as follows: Compound was evaluated for induced thermal stabilization for compound: DNA ratio of 1:10 at 0.1 to 0.2 degrees Centigrade. The arrangement: unit: °C.
Data set [2] deals with A2780. As to the kind of experiment: Compound was evaluated for cytotoxicity against A2780 cell lines. It is filed as functional, cell-based. The conditions noted are these: Homo sapiens.
A short description of data set [3]: Compound was evaluated for induced thermal stabilization for compound: DNA ratio of 1:5 at 0.1 to 0.2 degrees Centigrade. Also on record: unit: °C.
In a further data set the test system is MAC15A. As to the kind of experiment: Compound was evaluated for cytotoxicity against Mac15A cell lines. In kind it is functional, cell-based. The conditions noted are these: Mus musculus.
Data set [4] has as its system A2780. As to the kind of experiment: Compound was evaluated for cytotoxicity against A2780 cis cell lines. It is filed as functional, cell-based. The conditions noted are these: Homo sapiens.
The next data set concerns SK-OV-3. As to the kind of experiment: Compound was evaluated for cytotoxicity against SCOV-3 cell lines. In kind it is functional, cell-based. As to conditions: Homo sapiens.
The test system of a further data set is MOLT-4. As to the kind of experiment: Compound was evaluated for cytotoxicity against MOLT-4 cell lines. As to conditions: Homo sapiens. It is filed as functional, cell-based.
Another data set concerns SW-620. As to the kind of experiment: Compound was evaluated for cytotoxicity against SW-620 cell lines. It is filed as functional, cell-based. As to conditions: Homo sapiens.
The next data set deals with MCF7. As to the kind of experiment: Compound was evaluated for cytotoxicity against MCF-7 cell lines. It is filed as functional, cell-based. As to conditions: Homo sapiens.
In another data set the test system is WEHI. As to the kind of experiment: Compound was evaluated for cytotoxicity against WEHI cell lines. It is filed as functional, cell-based. As to conditions: Mus musculus.
For the next data set, the system named is HOP-92. As to the kind of experiment: Compound was evaluated for cytotoxicity against HOP-92 cell lines. It is filed as functional, cell-based. The conditions noted are these: Homo sapiens.

Structures are written as SMILES. pIC50: −log10 of the molar value. Some results are limits rather than exact numbers.

For orientation: pIC50 means the negative decadic logarithm of the IC50, by convention in mol/L. `O=C1c2c(O)ccc(O)c2C(=O)c2c(NCCNCCO)ccc(NCCNCCO)c21` [MITOXANTRONE]: the “Change in Tm” value in data set [1] was 15; in data set [3], > 25. For the same molecule, the pIC50 in the data set on A2780 [2] is 5.26.
`O=C(c1cn2c(ccc3sc4ccccc4c(=O)c32)n1)N1CCN(CCO)CC1`: the pIC50 in the data set with MAC15A was 6.38; in the data set with A2780 [4], 5.74; in the data set on SK-OV-3, 4.87; in the data set on A2780 [2], 6.13. The “Change in Tm” value in [1] is reported as 1.9; in [3], 3.5.
With `CCN(CC)CCCNC(=O)c1cn2c(ccc3sc4ccccc4c(=O)c32)n1`, the figures for the pIC50 in the data set with A2780 [4], with SK-OV-3 and with A2780 [2] were 6.32, 5.78 and 6.37, respectively. Also, the results for the “Change in Tm” value in data set [1] and in data set [3] were 7 and 12.4, respectively.
As for `CN(C)CCCNC(=O)c1cn2c(ccc3sc4ccccc4c(=O)c32)n1`, the pIC50 in the data set on MAC15A was 6.30; in the data set on MOLT-4, 6.38; in the data set on SW-620, 5.84; with MCF7, 4.95; with A2780 [4], 6.12; in the data set with SK-OV-3, 5.67. For the same molecule, the results for the pIC50 with WEHI, in the data set on HOP-92 and with A2780 [2] were 6.52, 6.44 and 6.27, respectively. Moreover, the “Change in Tm” value in [1] was found to be 5.7; in data set [3], 10.4.
On to `Nc1ccc2cc3ccc(N)cc3nc2c1` [PROFLAVINE], for which the “Change in Tm” value is given as 6.3 in data set [1] and 11.5 in data set [3].
For the molecule `O=C(NCCN1CCCCC1)c1cn2c(ccc3sc4ccccc4c(=O)c32)n1`, the pIC50 was 6.74 in the data set on MAC15A, 6.19 in the data set with A2780 [4], 5.11 in the data set on SK-OV-3 and 6.25 with A2780 [2]. Moreover, the “Change in Tm” value in data set [1] was determined as 6; in data set [3], 10.5.
As for `O=C(NCCN1CCOCC1)c1cn2c(ccc3sc4ccccc4c(=O)c32)n1`, the negative-log IC50 (pIC50) in the data set on MOLT-4 was 5.48; in the data set with SW-620 it was 5.31; in the data set on MCF7 it was 5.15; in the data set with A2780 [4], 5.12; in the data set on SK-OV-3, 4.64; in the data set on HOP-92, 4.89. Moreover, in the data set on A2780 [2], the negative-log IC50 (pIC50) is 5.24. Moreover, the “Change in Tm” value in [1] was 1.6; in data set [3], 2.9.
Turning to `O=C(NCCN1CCCC1)c1cn2c(ccc3sc4ccccc4c(=O)c32)n1`, the pIC50 was 6.33 in the data set on MOLT-4; 5.82 in the data set on SW-620; 6.21 in the data set with MCF7; 5.22 in the data set with A2780 [4]; 4.54 in the data set on SK-OV-3; 4.80 in the data set with HOP-92. The molecule also showed a pIC50 in the data set with A2780 [2] of 5.35. Besides, the “Change in Tm” value in data set [1] is reported as 3.4; in [3], 6.5.
With `CCOC(=O)c1cn2c(ccc3sc4ccccc4c(=O)c32)n1`, the pIC50 with MOLT-4 was < 4.00; in the data set on SW-620, < 4.00; with MCF7, 4.07; in the data set with A2780 [4], < 4.00; with SK-OV-3, < 4.00; with WEHI it was < 4.00. Besides, the values for the pIC50 with HOP-92 and with A2780 [2] were 4.06 and < 4.00, respectively. For the same molecule, the “Change in Tm” value amounted to 0.5 in data set [1] and 1.2 in [3].

Source of the values: ChEMBL document CHEMBL1129744, “Novel imidazothioxanthones: Synthesis, DNA binding and cytotoxicity” (Bioorg Med Chem Lett, 1996).
